Test results from US7452865B2, “Antagonistic analogs of GH RH (2003)” (The Administrare's of the Tulane Educational Fund, priority 2004, dated 2008).
Marks after values point to notes of the source that are not given here. Square brackets hold non-standard residues; d marks the D form. Peptide text beside a SMILES is read from it. * marks the point of attachment. Phe(4-amidino) = N=C(N)c1ccc(C[C@H](N)C(=O)O)cc1; Phe(4-Cl) = N[C@@H](Cc1ccc(Cl)cc1)C(=O)O; hArg = N=C(N)NCCCC[C@H](N)C(=O)O; Nle = CCCC[C@H](N)C(=O)O; Abu = CC[C@H](N)C(=O)O; PhAc = O=C(Cc1ccccc1)*

Assays:
[1] = system: rat anterior pituitary adenylate cyclase; details: cited from earlier work
GH secretion = details: cited from earlier work
[2] = system: hGH-RH(1-29)NH2 induced GH release; assay: Inhibition of GH release in superfused rat pituitary system; format: cell-based
Procedure, shortened: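 Dispersed rat pituitary cells in superfusion were preincubated 9 min with analog at various concentrations, then stimulated with 1 nM hGH-RH(1-29)NH2 for 3 min, repeated at 30, 60, 90, 120 min to gauge duration. GH measured by double-antibody RIA; net integrated responses expressed as percent of the initial 1 nM GH-RH response.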

pituitary = details: cited from earlier work
IGF-I [3] = assay: DMS-153 human SCLC xenografts: serum IGF-I; format: in vivo, nude mice; details: 10 μg/day s.c., 6 weeks
From the text: (§1) For the measurement of GH and IGF-I levels in the serum, as well as IGF-I and IGF-II concentrations in the cytosol fraction of tumors, blood samples and tumor samples were collected and processed as described (Braczkowski R, Schally A V, Plonowski A, Varga J L, Groot K, Krupa M, Armatis P, Cancer 95: 1735-1745, 2002), hereby incorporated by reference. Briefly, blood samples are centrifuged to separate the serum, tumors are homogenized and centrifuged to separate the cytosol fraction. Serum GH is then measured by the double-antibody RIA method. Before measurement by RIA, IGF-I and IGF-II are extracted from serum and cytosol fractions using an acid-ethanol cryoprecipitation method that eliminates most of the IGF binding proteins, which can interfere with the RIA. IGF-I concentration is measured by RIA using IGF-I as a standard and goat anti-IGF-I antibody (both from DSL Inc., Webster, Tex.). IGF-II concentration is measured by RIA using human recombinant IGF-II (Bachem) as a standard and anti-IGF-II monoclonal antibody (Amano International Enzyme, Troy, Va.).
(§2) Male nude mice were implanted s.c. with 3 mm^3 pieces of DMS-153 human SCLC tissue. When tumors reached a volume of approx. 100 mm^3 the mice were divided into 3 experimental groups of 68 animals each and received the following treatment for 6 weeks group 1 (control), vehicle solution; group 2, Peptide 67 (10 μg/day s.c.); group 3, Peptide 31 (10 μg/day s.c.). Tumor volumes were recorded twice a week. At the end of treatment, mice were anesthetized with isoflurane, killed by decapitation, trunk blood was collected for measurement of serum IGF-I, and tumors were excised and weighed. Data are presented as means±S.E. Data were evaluated by one way ANOVA and the Student-Newman-Keuls test.

[4] = system: H-69 human SCLC xenografts; assay: H-69 human SCLC xenografts in nude mice: tumor growth; format: in vivo; details: H-69
Description: Male nude mice were implanted s.c. with 3 mm^3 pieces of H-69 human SCLC tissue. When tumors reached a volume of approx. 80 mm^3 the mice were divided into 4 experimental groups of 7-8 animals each and received the following treatment for 4 weeks: group I (control), vehicle solution; group 2, Peptide 67 (10 μg/day s.c.); group 3, Peptide 31 (10 μg/day s.c.); group 4, Peptide 72 (10 μg/day s.c.). Tumor volumes were recorded twice a week. At the end of treatment, mice were anesthetized with isoflurane, killed by decapitation, and tumors were excised and weighed. Data are presented as means±S.E. Data were evaluated by one way ANOVA and the Student-Newman-Keuls test.

IGF-II = assay: PC-3 xenografts, Experiment 1: tumor IGF-II (RIA); format: in vivo, nude mice; details: 10 μg/day s.c., 28 days
From the text: as §1
(§3) Male nude mice were implanted s.c. with 3 mm^3 pieces of PC-3 human hormone-independent prostate cancer tissue on both flanks. When tumors reached a volume of approx. 50 mm^3, the mice were divided into 5 experimental groups with 7 to 8 animals in each group and received single daily injections for 28 days as follows: 1. Control (vehicle solution); 2. JV-1-38 (10 μg/day s.c.); 3 Peptide 31 (10 μg/day s.c.); 4. Peptide 67 (10 μg/day s.c.); 5. Peptide 62 (10 μg/day s.c.). Tumor volumes were measured twice a week. The experiment was ended on day 29 by sacrificing the mice under Isoflurane anesthesia. Resulting tumors were cleaned, weighed, and snap-frozen until further analyses. Trunk blood was collected from the abdominal aorta and serum was separated for RIA measurement of IGF-I. Statistical analyses of the measurement results were done by two-tailed t-test; data are presented as the means±S.E.

IGF-I [5] = assay: PC-3 xenografts, Experiment 1: serum IGF-I (RIA); format: in vivo, nude mice; details: 10 μg/day s.c., 28 days
From the text: as §1, §3

[6] = system: PC-3 human prostate cancer xenografts; assay: PC-3 xenografts in nude mice, Experiment 1: tumor growth; format: in vivo
Description: as §3

[7] = system: DMS-153 human SCLC xenografts; assay: DMS-153 human SCLC xenografts in nude mice: tumor growth; format: in vivo
Description: as §2

mRNA for IGF-II = assay: DMS-153 human SCLC xenografts: expression of mRNA for IGF-II; format: in vivo, nude mice; details: 10 μg/day s.c., 6 weeks, control group 100±1.5%
Description: as §2

[8] = 10 μg/day s.c., 28 days, vs control
[9] = 10 μg/day s.c., 6 weeks, vs control

## [Ac-Tyr^1, D-Arg^2]hGH-RH(1-29)NH2 [Standard antagonist, reference compound]
[1]
  activation of rat anterior pituitary adenylate cyclase by hGH-RH(1-29)NH2: prevent the activation
GH secretion; 400 μg/kg, normal subjects
  nocturnal GH secretion: eliminated nocturnal GH secretion
GH secretion; a patient with acromegaly
  GH levels: reduced GH levels
[2]; antagonist 100 nM, 0 min
  GH response (% of control) 0 min: 38 % of control
[2]; antagonist 100 nM, 30 min
  GH response (% of control) 30 min: 98 % of control
[2]; antagonist 100 nM, 60 min
  GH response (% of control) 60 min: 81 % of control

## Tyr-Ala-Asp-Ala-Ile^5-Phe-Thr-Asn-Ser-Tyr^10-Arg-Lys-Val-Leu-Gly^15-Gln-Leu-Ser-Ala-Arg^20-Lys-Leu-Leu-Gln-Asp^25-Ile-Met-Ser-Arg^29-NH2 [GH-RH(1-29)]
pituitary
  potency retained relative to native GH-RH: ≥ 50%

## CCCC[C@H](NC(=O)[C@@H](NC(=O)[C@H](CC(=O)O)NC(=O)[C@H](CCC(N)=O)NC(=O)[C@H](CC(C)C)NC(=O)[C@H](CC(C)C)NC(=O)[C@H](CCCCN)NC(=O)[C@H](CCCNC(=N)N)NC(=O)[C@H](C)NC(=O)[C@H](CO)NC(=O)[C@H](CC(C)C)NC(=O)[C@H](CCC(N)=O)NC(=O)[C@H](CC)NC(=O)[C@H](CC(C)C)NC(=O)[C@@H](NC(=O)[C@H](CCCCN)NC(=O)[C@H](CCCNC(=N)N)NC(=O)[C@H](Cc1ccc(C(=N)N)cc1)NC(=O)[C@H](CCCCNC(=N)N)NC(=O)[C@H](CC(N)=O)NC(=O)[C@@H](NC(=O)[C@H](Cc1ccc(Cl)cc1)NC(=O)[C@@H](NC(=O)[C@H](C)NC(=O)[C@H](CC(=O)O)NC(=O)[C@@H](CCCNC(=N)N)NC(=O)[C@H](Cc1ccc(O)cc1)NC(=O)Cc1ccccc1)[C@@H](C)CC)[C@@H](C)O)C(C)C)[C@@H](C)CC)C(=O)N[C@H](CCCNC(=N)N)C(=O)N[C@@H](CCCCNC(=N)N)C(N)=O [Peptide 31, [PhAc-Tyr^1, D-Arg^2, Phe(pCl)^6, Har^9, Amp^10, Abu^15, Nle^27, D-Arg^28, Har^29]hGH-RH(1-29)NH2] (PhAc-Y[dR]DAI[Phe(4-Cl)]TN[hArg][Phe(4-amidino)]RKVL[Abu]QLSARKLLQDI[Nle][dR][hArg]-NH2)
IGF-I [3]
  Serum IGF-I: 118.4 ± 12.5 ng/mL
IGF-I [3]; vs control
  Serum IGF-I (% inhibition): (30%)
[4]; 10 μg/day s.c., 4 weeks
  Tumor volume (mm^3) Final: 832 ± 23* mm^3
[4]; 10 μg/day s.c., 4 weeks, vs control
  Tumor volume Final (% inhibition): (67%)
[4]; at start of treatment
  Tumor volume (mm^3) Initial: 80 ± 6 mm^3
IGF-II
  Tumor IGF-II (pg/mg protein): 130 ± 56.0 pg/mg protein
IGF-II; vs control
  Tumor IGF-II (% inhibition): (41%)
IGF-I [5]
  Serum IGF-I: 133 ± 16.7 ng/mL
IGF-I [5]; vs control
  Serum IGF-I (% inhibition): (11%)
[6]; 10 μg/day s.c., 28 days
  Tumor volume (mm^3) Final: 363 ± 92.8 mm^3
  Tumor volume doubling time: 14.0 ± 2.69 days
  Tumor weight: 237 ± 53.3 mg
[6]; [8]
  Tumor volume Final (% inhibition): (28%)
  Tumor weight (% inhibition): (37%)
[6]; at start of treatment
  Tumor volume (mm^3) Initial: 49.1 ± 12.5 mm^3
[7]; 10 μg/day s.c., 6 weeks
  Tumor volume (mm^3) Final: 3329 ± 180 mm^3
  Tumor weight: 1.58 ± 0.11 g
[7]; [9]
  Tumor volume Final (% inhibition): (10%)
  Tumor weight (% inhibition): (32%)
[7]; at start of treatment
  Tumor volume (mm^3) Initial: 138 ± 20 mm^3
mRNA for IGF-II
  level of expression of mRNA for IGF-II: 42.7±18.5%
[2]; antagonist 10 nM, 0 min
  GH response (% of control) 0 min: 57 % of control
[2]; antagonist 10 nM, 30 min
  GH response (% of control) 30 min: 31 % of control
[2]; antagonist 10 nM, 60 min
  GH response (% of control) 60 min: 37 % of control
[2]; antagonist 10 nM, 90 min
  GH response (% of control) 90 min: 36 % of control
[2]; antagonist 10 nM, 120 min
  GH response (% of control) 120 min: 37 % of control
[2]; antagonist 30 nM, 1 nM hGH-RH(1-29)NH2 at 0 min
  GH response (% of control) 0 min: 7 % of control
[2]; antagonist 30 nM, 1 nM hGH-RH(1-29)NH2 at 30 min
  GH response (% of control) 30 min: 1 % of control
[2]; antagonist 30 nM, 1 nM hGH-RH(1-29)NH2 at 60 min
  GH response (% of control) 60 min: 2 % of control
[2]; antagonist 30 nM, 1 nM hGH-RH(1-29)NH2 at 90 min
  GH response (% of control) 90 min: 4 % of control
[2]; antagonist 30 nM, 1 nM hGH-RH(1-29)NH2 at 120 min
  GH response (% of control) 120 min: 3 % of control
[2]; general statement, in vitro and in vivo
  endocrine antagonistic potency: inhibition of the GH release stimulated by hGH-RH(1-29)NH2 (in words): high endocrine antagonistic potencies
